For 22 compounds, GI50 and IC (TGI) results are on record in US20160095843A1, “PYRAZOLOPYRROLIDINE DERIVATIVES AND THEIR USE IN THE TREATMENT OF DISEASE” (NOVARTIS AG, priority 2013, published 2016).

Each structure is given as a SMILES string.

One experiment deals with MV-4-11 cells. Kind of experiment: Cell growth inhibition assay (CellTiter-Glo), MV-4-11. The experiment is classed as cell-based. As to conditions: Homo sapiens, MV4-11. An outline of the steps:
(§1)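 Leukemia lines grown in their own media were exposed for 4 days at 37° C. to 3-fold serial dilutions from 10 μM (0.1% DMSO). Viability by CellTiter-Glo ATP luminescence, corrected for background and day-0 plate; IC50 and TGI from four-parameter fit against vehicle (100%) and medium (−100%).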
(In ATP-based viability assays light output follows the ATP content of the culture.)

The subject of a further experiment is K-562 cells. Kind of experiment: Cell growth inhibition assay (CellTiter-Glo), K-562. It counts as cell-based, human. As to conditions: for GI50: Homo sapiens, K562. An outline of the steps: as §1
Another experiment deals with THP-1 cells. Kind of experiment: Cell growth inhibition assay (CellTiter-Glo), THP-1. The experiment is classed as cell-based. As to conditions: Homo sapiens. An outline of the steps: as §1

Consider `COc1ncccc1-n1nc(C)c2c1C(=O)N(c1cc(C)c(=O)n(C)c1)[C@@H]2c1ccc(Cl)cc1` [Example 128, (R)-4-(4-chlorophenyl)-5-(1,5-dimethyl-6-oxo-1,6-dihydropyridin-3-yl)-1-(2-methoxypyridin-3-yl)-3-methyl-4,5-dihydropyrrolo-[3,4-c]pyrazol-6(1H)-one], for which the GI50 (as a rule, the concentration that inhibits growth by half) turned out to be 34.5 nM with MV-4-11 cells, 183 nM with K-562 cells and 64.6 nM in the experiment with THP-1 cells. The same compound yielded an IC (TGI) in the experiment on K-562 cells of over 10000 nM.

In the case of `CCc1nn(-c2ccnn2C)c2c1C(c1ccc(Cl)cc1)N(c1cc(C)c(=O)n(C)c1)C2=O` (centres unmarked) [Example 89, 4-(4-chlorophenyl)-5-(1,5-dimethyl-6-oxo-1,6-dihydropyridin-3-yl)-3-ethyl-1-(1-methyl-1H-pyrazol-5-yl)-4,5-dihydropyrrolo-[3,4-c]pyrazol-6(1H)-one], the GI50 in the experiment with MV-4-11 cells stood at 46.5 nM; in the experiment on K-562 cells, 442 nM; in the experiment with THP-1 cells, 40.6 nM.

For the compound `Cc1nn(-c2ccnn2C)c2c1C(c1ccc(Cl)cc1)N(c1cc(C)c3nnc(C)n3n1)C2=O` (centres unmarked) [Example 114, 4-(4-chlorophenyl)-5-(3,8-dimethyl-[1,2,4]triazolo[4,3-b]pyridazin-6-yl)-3-methyl-1-(1-methyl-1H-pyrazol-5-yl)-4,5-dihydropyrrolo-[3,4-c]pyrazol-6(1H)-one], the concentration for 50% growth inhibition (GI50) in the experiment with MV-4-11 cells is 20.4 nM; in the experiment on K-562 cells, 187 nM; in the experiment with THP-1 cells, 30.4 nM.

For the compound `CCn1nc(C)c2c1C(=O)N(c1cc(C)c3nnc(C)n3c1)C2c1ccc(Cl)cc1` (centres unmarked) [Example 116, 4-(4-chlorophenyl)-5-(3,8-dimethyl-[1,2,4]triazolo[4,3-a]pyridin-6-yl)-1-ethyl-3-methyl-4,5-dihydropyrrolo-[3,4-c]pyrazol-6(1H)-one], the concentration for 50% growth inhibition (GI50) with MV-4-11 cells was 12.5 nM; in the experiment on K-562 cells, 81.2 nM; with THP-1 cells, 18.8 nM.

`COc1ncc(-n2nc3c(c2C(F)(F)F)C(c2ccc(Cl)cc2)N(c2cc(Cl)c(=O)n(C)c2)C3=O)c(OC)n1` (centres unmarked) [Example 47, 5-(5-chloro-1-methyl-6-oxo-1,6-dihydropyridin-3-yl)-4-(4-chlorophenyl)-2-(2,4-dimethoxypyrimidin-5-yl)-3-(trifluoromethyl)-4,5-dihydropyrrolo[3,4-c]pyrazol-6(2H)-one]: the 50% growth inhibitory concentration (GI50) was 113 nM in the experiment on MV-4-11 cells, 709 nM in the experiment on K-562 cells and 414 nM in the experiment on THP-1 cells.

`Cc1cc(N2C(=O)c3nn(C(C)C)c(C)c3C2c2ccc(F)cc2F)cn2c(C)nnc12` (centres unmarked) [Example 175, 4-(2,4-difluorophenyl)-5-(3,8-dimethyl-[1,2,4]triazolo[4,3-a]pyridin-6-yl)-2-isopropyl-3-methyl-4,5-dihydropyrrolo-[3,4-c]pyrazol-6(2H)-one]: the GI50 in the experiment on MV-4-11 cells turned out to be 42.2 nM; with K-562 cells, 192 nM; in the experiment on THP-1 cells, 66.2 nM.

Consider `Cc1cc(N2C(=O)c3nn(C4CC4)c(C)c3C2c2ccc(Cl)cc2)cn2c(C)nnc12` (centres unmarked) [Example 93, 4-(4-chlorophenyl)-2-cyclopropyl-5-(3,8-dimethyl-[1,2,4]triazolo[4,3-a]pyridin-6-yl)-3-methyl-4,5-dihydropyrrolo[3,4-c]pyrazol-6(2H)-one], for which the GI50 in the experiment on MV-4-11 cells was 13.5 nM; in the experiment with K-562 cells it was 80 nM; in the experiment with THP-1 cells it was 26.4 nM.

For `Cc1cc(N2C(=O)c3c(cnn3C3CC3)C2c2ccc(Cl)cc2)cn(C)c1=O` (centres unmarked) [Example 34, 4-(4-chlorophenyl)-1-cyclopropyl-5-(1,5-dimethyl-6-oxo-1,6-dihydropyridin-3-yl)-4,5-dihydropyrrolo[3,4-c]pyrazol-6(1H)-one], the 50% growth inhibitory concentration (GI50) in the experiment with MV-4-11 cells turned out to be 82.8 nM; with K-562 cells, 601 nM; in the experiment with THP-1 cells, 162 nM.

Consider `Cc1cc(N2C(=O)c3n[nH]cc3C2c2ccc(Cl)cc2)cn(C)c1=O` (centres unmarked) [Example 26, 4-(4-chlorophenyl)-5-(1,5-dimethyl-6-oxo-1,6-dihydropyridin-3-yl)-4,5-dihydropyrrolo[3,4-c]pyrazol-6(2H)-one], for which the concentration for 50% growth inhibition (GI50) in the experiment on MV-4-11 cells came to 204 nM; with K-562 cells, 1500 nM; in the experiment on THP-1 cells, 297 nM.

For `Cc1c2c(nn1C1CC1)C(=O)N(c1cc(Cl)c(=O)n(C)c1)[C@@H]2c1ccc(Cl)cc1` [Example 19, (R)-5-(5-chloro-1-methyl-6-oxo-1,6-dihydropyridin-3-yl)-4-(4-chlorophenyl)-2-cyclopropyl-3-methyl-4,5-dihydropyrrolo-[3,4-c]pyrazol-6(2H)-one], the GI50 turned out to be 25.8 nM in the experiment with MV-4-11 cells, 242 nM with K-562 cells and 74.6 nM with THP-1 cells. This compound also had an IC (TGI) with K-562 cells of over 10000 nM.

For `Cc1nn(C2CC2)c2c1C(c1ccc(Cl)cc1)N(c1cc(C)c3nnc(C(F)F)n3n1)C2=O` (centres unmarked) [Example 195, 4-(4-chlorophenyl)-1-cyclopropyl-5-(3-(difluoromethyl)-8-methyl-[1,2,4]triazolo[4,3-b]pyridazin-6-yl)-3-methyl-4,5-dihydropyrrolo-[3,4-c]pyrazol-6(1H)-one], the GI50 in the experiment with MV-4-11 cells was determined as 23.9 nM; with K-562 cells, 127 nM; in the experiment with THP-1 cells it was 30.3 nM.

`Cc1c2c(nn1C1CC1)C(=O)N(c1cc(Cl)c(=O)n(C)c1)[C@H]2c1ccc(Cl)cc1` [Example 18, (S)-5-(5-chloro-1-methyl-6-oxo-1,6-dihydropyridin-3-yl)-4-(4-chlorophenyl)-2-cyclopropyl-3-methyl-4,5-dihydropyrrolo[3,4-c]pyrazol-6(2H)-one]: the GI50 in the experiment on MV-4-11 cells is 3330 nM; with K-562 cells, over 10000 nM; with THP-1 cells it was over 10000 nM.

Take `Cc1nn(C(C)C)c2c1C(c1ccc(Cl)cc1)N(c1cc(Cl)c(=O)n(C)c1)C2=O` (centres unmarked) [Example 66, 5-(5-chloro-1-methyl-6-oxo-1,6-dihydropyridin-3-yl)-4-(4-chlorophenyl)-1-isopropyl-3-methyl-4,5-dihydropyrrolo-[3,4-c]pyrazol-6(1H)-one]: the GI50 in the experiment with MV-4-11 cells is 67.7 nM; with K-562 cells it was 908 nM; in the experiment on THP-1 cells, 126 nM.

For the compound `Cc1cc(N2C(=O)c3c(c(CF)nn3C3CC3)C2c2ccc(Cl)cc2)cn2c(C)nnc12` (centres unmarked) [Example 159, 4-(4-chlorophenyl)-1-cyclopropyl-5-(3,8-dimethyl-[1,2,4]triazolo[4,3-a]pyridin-6-yl)-3-(fluoromethyl)-4,5-dihydropyrrolo[3,4-c]pyrazol-6(1H)-one], the results for the concentration for 50% growth inhibition (GI50) in the experiment on MV-4-11 cells, in the experiment on K-562 cells and in the experiment on THP-1 cells were 40 nM, 116 nM and 36.9 nM, respectively.

Consider `Cc1cc(N2C(=O)c3c(c(CO)nn3C3CC3)C2c2ccc(Cl)cc2)cn(C)c1=O` (centres unmarked) [Example 133, 4-(4-chlorophenyl)-1-cyclopropyl-5-(1,5-dimethyl-6-oxo-1,6-dihydropyridin-3-yl)-3-(hydroxymethyl)-4,5-dihydropyrrolo-[3,4-c]pyrazol-6(1H)-one], for which the GI50 turned out to be 69 nM in the experiment with MV-4-11 cells, 451 nM with K-562 cells and 166 nM with THP-1 cells.

As for `Cc1nn(C2CC2)c2c1C(c1ccc(C(F)(F)F)cc1)N(c1cc(C)c(=O)n(C)c1)C2=O` (centres unmarked) [Example 97, 1-cyclopropyl-5-(1,5-dimethyl-6-oxo-1,6-dihydropyridin-3-yl)-3-methyl-4-(4-(trifluoromethyl)phenyl)-4,5-dihydropyrrolo-[3,4-c]pyrazol-6(1H)-one], the GI50 came to 68 nM in the experiment on MV-4-11 cells, 684 nM in the experiment with K-562 cells and 164 nM in the experiment with THP-1 cells.

In the case of `Cc1cc(N2C(=O)c3c(c(CO)nn3C3CC3)[C@H]2c2ccc(Cl)cc2)cn2c(C)nnc12` [Example 166, (R)-4-(4-chlorophenyl)-1-cyclopropyl-5-(3,8-dimethyl-[1,2,4]triazolo[4,3-a]pyridin-6-yl)-3-(hydroxymethyl)-4,5-dihydropyrrolo-[3,4-c]pyrazol-6(1H)-one], the values for the GI50 in the experiment on MV-4-11 cells, with K-562 cells and in the experiment with THP-1 cells were 9.38 nM, 94.6 nM and 17.1 nM, respectively.

With `Cc1nn(C2CC2)c2c1C(c1ccc(Cl)cc1)N(c1cc(C)c3nnn(C)c3n1)C2=O` (centres unmarked) [Example 110, 4-(4-chlorophenyl)-1-cyclopropyl-5-(3,7-dimethyl-3H-[1,2,3]triazolo[4,5-b]pyridin-5-yl)-3-methyl-4,5-dihydropyrrolo-[3,4-c]pyrazol-6(1H)-one], the figures for the GI50 in the experiment on MV-4-11 cells, in the experiment on K-562 cells and with THP-1 cells were 5.25 nM, 50.3 nM and 10.6 nM, respectively.

`Cc1cc(N2C(=O)c3nn(C4CN(C)C4)c(C)c3C2c2ccc(Cl)cc2)cn(C)c1=O` (centres unmarked) [Example 139, 4-(4-chlorophenyl)-5-(1,5-dimethyl-6-oxo-1,6-dihydropyridin-3-yl)-3-methyl-2-(1-methylazetidin-3-yl)-4,5-dihydropyrrolo-[3,4-c]pyrazol-6(2H)-one]: the GI50 in the experiment on MV-4-11 cells was determined as 72.9 nM; in the experiment with K-562 cells, 591 nM; in the experiment with THP-1 cells it was 190 nM.

As for `CCc1nn(CCO)c2c1C(c1ccc(Cl)cc1)N(c1cc(C)c3onc(C)c3c1)C2=O` (centres unmarked) [Example 79, 4-(4-chlorophenyl)-5-(3,7-dimethylbenzo[d]isoxazol-5-yl)-3-ethyl-1-(2-hydroxyethyl)-4,5-dihydropyrrolo-[3,4-c]pyrazol-6(1H)-one], the concentration for 50% growth inhibition (GI50) in the experiment with MV-4-11 cells came to 348 nM; with K-562 cells, 920 nM; in the experiment with THP-1 cells it was 255 nM.

With `Cc1nn(C2CC2)c2c1C(c1ccc(Cl)cc1)N(c1cn(C)c(=O)c3[nH]ccc13)C2=O` (centres unmarked) [Example 160, 4-(4-(4-chlorophenyl)-1-cyclopropyl-3-methyl-6-oxopyrrolo-[3,4-c]pyrazol-5(1H,4H,6H)-yl)-6-methyl-1H-pyrrolo[2,3-c]pyridin-7(6H)-one], the GI50 with MV-4-11 cells turned out to be 66.2 nM; in the experiment with K-562 cells, 426 nM; in the experiment with THP-1 cells, 56.1 nM.

With `COc1ncccc1-n1nc2c(c1C)C(c1ccc(Cl)cc1F)N(c1cc(C)c3nnc(C)n3c1)C2=O` (centres unmarked) [Example 194, 4-(4-chloro-2-fluorophenyl)-5-(3,8-dimethyl-[1,2,4]triazolo[4,3-a]pyridin-6-yl)-2-(2-methoxypyridin-3-yl)-3-methyl-4,5-dihydropyrrolo-[3,4-c]pyrazol-6(2H)-one], the results for the GI50 with MV-4-11 cells, in the experiment with K-562 cells and in the experiment with THP-1 cells were 48.6 nM, 245 nM and 73.2 nM, respectively.
